From patent US20190224341A1, “RENAL CLEARABLE ORGANIC NANOCARRIERS” (The General Hospital Corporation, priority 2016, published 2019)

Assay: In vivo biodistribution and pharmacokinetics in CD-1 mice
Conditions: i.v. 10 nmol
Method: Six weeks old CD-1 mice (male; 25-30 g) were purchased from Charles River Laboratories (Wilmington, Mass.). Mice were maintained under anesthesia by intraperitoneal injection with 100 mg/kg ketamine and 10 mg/kg xylazine (Webster Veterinary, Fort Devens, MA) for the entire duration of the experiment. The end of the tail was cut to enable blood extraction. Before injection, blood was then sampled in heparinized capillary tubes (Fisher Scientific, Pittsburgh, Pa.) as a reference and collected blood was stored in an ice box to prevent clotting. […] Mice were imaged using the in-house built real-time intraoperative MR imaging system. A 760 nm excitation laser source (4 mW/cm) was used with white light (400-650 nm; 40,000 lux). Color and MR fluorescence images were acquired simultaneously with customized software at rates of up to 15 Hz over a field of view with 15 cm in diameter. After 4 h post-injection, mice were sacrificed to image organs and collected urine from the bladder. At least 3 mice were analyzed for each sample.
The collected blood samples were centrifuged for 20 min at 3000 rpm in order to separate serum and blood plasma, and supernatants were then filled into capillary microtubes. Fluorescence intensities of the microtubes were measured using the in-house built MR imaging system. […]

## CC1(C)C(/C=C/C2=C(c3ccc(CCC(=O)O)cc3)C(=C/C=C3/N(CCC[N+](C)(C)C)c4ccc(S(=O)(=O)O)cc4C3(C)C)/CCC2)=[N+](CCC[N+](C)(C)C)c2ccc(S(=O)(=O)O)cc21 [ZW800-1C]
4 h, resected organs
  Signal-to-background ratio (SBR) of each organ against muscle: highest SBR in the kidneys
4 h post-injection
  Biodistribution by NIR fluorescence imaging: excretes to the bladder 4 h after injection
